# Reference: US7632841B2, “2-N{5-[[4-[2-(methyl-2-pyridinylamino) ethoxy] phenyl]methyl]-2,4-thiazolidinedione} butanedioic acid, methods of preparation and compositions with rosiglitazone maleate” (Teva Pharmaceutical Industries, Ltd., priority 2006, dated 2009)
# Experiment: Compatibility study: rosiglitazone maleate mixed with excipients/metformin and water, formation of Compound 1
# Assay type: physicochemical
# Settings: rosiglitazone maleate mixed with the named excipient in proportions of 500 mg/4 mg tablets, 0.5 ml water added, 65° C. for 4 days
# Experimental: Rosiglitazone maleate was mixed with various excipients and with metformin in the same proportions as present in the 500 mg/4 mg (base strength) metformin/rosiglitazone maleate tablets. 0.5 ml of water was added to each mixture, and the samples were kept at 65° C. for 4 days. The amount of Compound 1 was determined in each of the samples using the method in Example 4. The peaks were measured and the area percent (area of Compound 1 peak/area of all rosiglitazone related peaks) of the Compound 1 peak is listed below.
# Placebo mix A refers to a mixture of excipients as indicated in Example 5a, with the exception of rosiglitazone maleate.
# Placebo mix B refers to a mixture of excipients as indicated in Example 5b, with the exception of rosiglitazone maleate.
structure (smiles),measurement,value
"CN(CCOc1ccc(CC2SC(=O)NC2=O)cc1)c1ccccn1.O=C(O)/C=C\C(=O)O (racemic) [Rosiglitazone Maleate (alone), (±)-5-[[4-[2-(methyl-2-pyridinylamino)ethoxy]phenyl]methyl]-2,4-thiazolidinedione, (Z)-2-butenedioate (1:1)]",Area Percent of Compound 1 peak (area of Compound 1 peak/area of all rosiglitazone related peaks),0.9 Area Percent
